# From US11046657B2, “Pyrimidinone derivatives and uses thereof to neutralize the biological activity of chemokines” (Centre National de la Recherche Scientifique (CNRS), priority 2016, dated 2021)
# Entries after “also recorded” stand apart in the source; their conditions may differ. Like-named read-outs stand apart in the source and are kept apart here.
# What was measured:
# [1] = tested on: Balb/c mice topically administered MC903; experiment: Murine model of atopic dermatitis induced by MC903; format: in vivo, mouse; conditions: 350 μmol/kg topical in acetone/olive oil, 2 h before each MC903 application, D1-D13
# Experimental: FIG. 2A. In vivo effect of a topical treatment with chalcone 4 and compound (1). Mouse ears were treated with MC903 (calcipotriol, 2 nmol/ear or 4 nmol/ear) or its solvent (ethanol EtOH) together with 350 μmol/kg chalcone 4 (upper row of images) or compound (1) (lower row of images) or solvent (acetone/olive oil 50/50, AOO). Chalcone 4 and compound (1) were dissolved in AOO and administered topically 2 h before each MC903 application. MC903 was dissolved in EtOH and topically applied.
# FIG. 2B. Increase in ear thickness over time (D1-D13) was determined with a caliper on animals treated with MC903 or solvent (EtOH), and compound (1) or solvent (AOO) as described for FIG. 2A. Data points are means and bars are S.E.M. values of n=6 determinations.
# FIG. 2C. Increase in ear thickness over time (D1-D13) was determined with a caliper on animals treated with MC903 or solvent (EtOH) and […] or solvent (AOO). Data points are means and bars are S.E.M. values of n=6 determinations.
# The in vivo activity of compound (1) was tested in a murine model of atopic dermatitis as previously described (Zhang et al, Proc Nat Acad Si USA 2009, 106, 1536-41). Briefly, Balb/c mice were topically administered with a vitamin D analogue, MC903 (2 or 4 nmol/ear) every other day for 13 days. […]
# [2] = biological target: CXCL12 to CXCR7 (Homo sapiens, UniProt P48061); conditions: cited from earlier work
# [3] = tested on: Balb/c mice administered LPS; experiment: LPS-induced mouse model of neutrophilic airway inflammation (COPD); format: in vivo; conditions: 350 μmol/kg i.p. in 1% CMC, 2 h before LPS; lavage 24 h after LPS
# Experimental: In vivo effect of a systemic treatment with chalcone-4 or compound (1) in a LPS-induced mouse model of neutrophilic airway inflammation. Balb/c mice were administered intranasally with LPS (1 μg, white block) or saline (control). Chalcone-4 (gray block) or compound (1) (black block) (350 μmol/kg each) suspended in 1% CMC or solvent (CMC alone) were administered intraperitoneally 2 h before LPS. Neutrophil recruitment is shown, inhibited by chalcone 4 and compound (1). Data points are means and bars are S.E.M. values of n=6 determinations.
# The in vivo activity of compound (1) was tested in the murine model of neutrophilic airway inflammation induced by lipopolysaccharide (LPS) as previously described (Flacher et al, ACS Chem Biol. 2015, 10:2697-705)^14.
# Briefly, Balb/c mice were administered intranasally with LPS (lipopolysaccharide from E. coli, O55B5, 1 μg, Sigma Aldrich) or saline. Treatments with (1) or Chalcone-4 (350 μmol/kg) in 1% CMC (carboxymethylcellulose) were administered by the intraperitoneal route 2 h before LPS instillation. Bronchoalveolar lavage was performed 24 h after LPS, and neutrophil, lymphocyte, eosinophil and macrophage numbers quantified.
# [4] = tested on: CXCL12; conditions: cited from earlier work
# [5] = biological target: CXCL12 to CXCR4 (Homo sapiens, UniProt P48061); conditions: cited from earlier work
# [6] = Solubility in assay media; format: physicochemical
# Experimental: Their solubility in assay media was evaluated. (2-Hydroxypropyl)-o-cyclodextrin (Cdx) was used as excipient because of its low toxicity and its capacity to increase bioavailability. […] The compound stability was evaluated in PBS only and in PBS/Cdx.
# [7] = tested on: human peripheral blood CD4+ lymphocytes; conditions: cited from earlier work
# [8] = biological target: T1, CCL22 (Homo sapiens, UniProt O00626); experiment: Selectivity towards chemokine CCL22; conditions: 5 μM
# T1 sequence (O00626 25-93): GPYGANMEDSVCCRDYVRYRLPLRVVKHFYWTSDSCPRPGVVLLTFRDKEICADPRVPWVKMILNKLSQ
# Experimental: (§1) Furthermore, the selectivity of (1) was also evaluated towards two other chemokines, namely CCL17 and CCL22, with no activity at 5 μM (data not shown).
# [9] = tested on: C57BL/6J mice; experiment: Fentanyl-induced hyperalgesia, tail immersion test
# [10] = biological target: T2, CCL17 (Homo sapiens, UniProt Q92583); experiment: Selectivity towards chemokine CCL17; conditions: 5 μM
# T2 sequence (Q92583 24-94): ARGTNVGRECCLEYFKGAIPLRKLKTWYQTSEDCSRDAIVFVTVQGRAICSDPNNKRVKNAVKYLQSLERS
# Experimental: as §1
# [11] = PBS with (2-hydroxypropyl)-cyclodextrin (Cdx) 10% w/w, aqueous with cosolvent or surfactant or cyclodextrin, PBS/Cdx (10% w/w), read-out: Solubility PBS/Cdx
# [12] = PBS, aqueous buffer, read-out: Solubility PBS
# CXCL12 to CXCR4, sequence (P48061 22-89 limits assumed): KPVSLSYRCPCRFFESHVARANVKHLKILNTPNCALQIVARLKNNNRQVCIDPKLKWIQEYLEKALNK
# CXCL12 to CXCR7, sequence (P48061 22-89 limits assumed): as above
"solubility [6, 11] [µM]","solubility [6, 12] [µM]",Activity towards CCL22 [8],Activity towards CCL17 [10],SMILES,Atopic response to MC903 (ear thickness) [1],Binding of CXCL12 to CXCR7 [2],Inhibition of neutrophil recruitment [3] [%],Intracellular calcium responses [4],Binding of CXCL12 to CXCR4 [5],Chemotaxis of human peripheral blood CD4+ lymphocytes [7],Solubility compared with chalcone-4 ([6]; in words),"Secondary hyperalgesia induced by fentanyl ([9]; 10 mg/kg i.p., co-administered with fentanyl)","Nociceptive threshold, compound alone ([9]; 50 mg/kg, i.p., without fentanyl)"
> 300,9,–,–,"COc1cc(/C=C/C(=O)c2ccc(Cl)cc2)ccc1O [Chalcone-4, (E)-1-(4-Chlorophenyl)-3-(4-hydroxy-3-methoxyphenyl)prop-2-en-1-one, reference compound]",totally abolished the atopic response to MC903,inhibits,30,inhibits intracellular calcium responses,inhibits,blocks chemotaxis,–,–,–
> 5000,36.4,no activity,no activity,"COc1cc(-c2cc(-c3ccc(Cl)cc3)nc(=O)[nH]2)ccc1O [compound (1), 4-(4-Chlorophenyl)-6-(4-hydroxy-3-methoxyphenyl)pyrimidin-2(1H)-one]",inhibits atopic dermatitis induced by MC903; also recorded: totally abolished the atopic response to MC903,–,43,–,–,–,better than the solubility of “chalcone-4”; also recorded: more soluble,completely prevented the development of secondary hyperalgesia,no effect on the nociceptive threshold
